Assay results taken from patent US9260425B2 (Genetech, Inc., priority 2011, dated 2016).

What follows are compounds tested against Pim-1 (Homo sapiens (Human), UniProt P11309) (assay: Pim kinase binding activity assay (Example 901), PIM-1 enzyme, Caliper microfluidic peptide phosphorylation). Conditions: 20 pM PIM-1, 10 μM ATP, 1 μM FAM-peptide, 90 minutes at room temperature.
Format: biochemical
Summary of the method: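 The readout was microfluidic mobility-shift separation of a FAM-tagged Pim-specific peptide, excited at 488 nm and read at 530 nm, with Ki calculated from percent conversion. Reactions held 20 pM PIM-1, 1 μM peptide and 10 μM ATP in pH 7.2 HEPES/MgCl2/DTT buffer, ran 90 min at room temperature and were stopped with EDTA.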

Sequence of Pim-1 (P11309 whole entry): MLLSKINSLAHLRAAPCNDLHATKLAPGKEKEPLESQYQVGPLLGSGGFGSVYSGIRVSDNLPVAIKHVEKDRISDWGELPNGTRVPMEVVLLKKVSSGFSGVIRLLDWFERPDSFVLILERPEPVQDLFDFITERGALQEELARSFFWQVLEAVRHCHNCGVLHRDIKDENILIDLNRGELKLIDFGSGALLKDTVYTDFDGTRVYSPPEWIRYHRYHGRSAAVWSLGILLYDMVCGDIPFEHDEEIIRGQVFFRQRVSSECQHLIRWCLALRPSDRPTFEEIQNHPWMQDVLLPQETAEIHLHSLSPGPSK

Row | Ki | SMILES
1 | 0.073 nM | O[C@@H]1CCCN(c2cccc(-c3n[nH]c4cnc(-c5cccnc5)cc34)n2)C1 [Example 271, (R)-1-(6-(5-(pyridin-3-yl)-1H-pyrazolo[3,4-c]pyridin-3-yl)pyridin-2-yl)piperidin-3-ol]
2 | 0.149 nM | OC1CCN(c2cccc(-c3n[nH]c4cnc(-c5cccnc5)cc34)n2)CC1 [Example 272, 1-(6-(5-(pyridin-3-yl)-1H-pyrazolo[3,4-c]pyridin-3-yl)pyridin-2-yl)piperidin-4-ol]
3 | 0.07 nM | c1cncc(-c2cc3c(-c4cccc(N5CCC(C6CCNCC6)CC5)n4)n[nH]c3cn2)c1 [Example 273, 3-(6-(4,4′-bipiperidin-1-yl)pyridin-2-yl)-5-(pyridin-3-yl)-1H-pyrazolo[3,4-c]pyridine]
4 | 4.77 nM | Cc1ccc(-c2n[nH]c3cnc(-c4cccnc4)cc23)nc1F [Example 274, 3-(6-fluoro-5-methylpyridin-2-yl)-5-(pyridin-3-yl)-1H-pyrazolo[3,4-c]pyridine]
5 | 6.92 nM | Cc1ccc(-c2n[nH]c3cnc(-c4cccnc4)cc23)nc1 [Example 275, 3-(5-methylpyridin-2-yl)-5-(pyridin-3-yl)-1H-pyrazolo[3,4-c]pyridine]
6 | 0.188 nM | N[C@@H]1CCN(c2cccc(-c3n[nH]c4cnc(-c5cccnc5)cc34)n2)C1 [Example 276, (R)-1-(6-(5-(pyridin-3-yl)-1H-pyrazolo[3,4-c]pyridin-3-yl)pyridin-2-yl)pyrrolidin-3-amine]
7 | 0.1 nM | NCC1CCN(c2cccc(-c3n[nH]c4cnc(-c5cccnc5)cc34)n2)CC1 [Example 278, (1-(6-(5-(pyridin-3-yl)-1H-pyrazolo[3,4-c]pyridin-3-yl)pyridin-2-yl)piperidin-4-yl)methanamine]
8 | 28.8 nM | C1=C(c2n[nH]c3cnc(-c4cccnc4)cc23)CCCO1 [Example 281, 3-(3,4-dihydro-2H-pyran-5-yl)-5-(pyridin-3-yl)-1H-pyrazolo[3,4-c]pyridine]
9 | 0.164 nM | OCCN1CCN(c2cccc(-c3n[nH]c4cnc(-c5cccnc5)cc34)n2)CC1 [Example 282, 2-(4-(6-(5-(pyridin-3-yl)-1H-pyrazolo[3,4-c]pyridin-3-yl)pyridin-2-yl)piperazin-1-yl)ethanol]
10 | 0.257 nM | NCCCCNc1cccc(-c2n[nH]c3cnc(-c4cccnc4)cc23)n1 [Example 283, N1-(6-(5-(pyridin-3-yl)-1H-pyrazolo[3,4-c]pyridin-3-yl)pyridin-2-yl)butane-1,4-diamine]
11 | 10.6 nM | C1=C(c2n[nH]c3cnc(-c4cccnc4)cc23)CCO1 [Example 284, 3-(4,5-dihydrofuran-3-yl)-5-(pyridin-3-yl)-1H-pyrazolo[3,4-c]pyridine]
12 | 0.0473 nM | CCn1cc(-c2cc3c(-c4cccc(N5CCC[C@@H](N)C5)n4)n[nH]c3cn2)cn1 [Example 285, (R)-1-(6-(5-(1-ethyl-1H-pyrazol-4-yl)-1H-pyrazolo[3,4-c]pyridin-3-yl)pyridin-2-yl)piperidin-3-amine]
13 | 0.093 nM | Cn1cc(-c2cc3c(-c4cccc(N5CCC(N)(C(F)(F)F)C5)n4)n[nH]c3cn2)cn1 (stereo not shown) [Example 286, 1-(6-(5-(1-methyl-1H-pyrazol-4-yl)-1H-pyrazolo[3,4-c]pyridin-3-yl)pyridin-2-yl)-3-(trifluoromethyl)pyrrolidin-3-amine]
14 | 0.086 nM | Cc1ccc(-c2n[nH]c3cnc(-c4cccnc4)cc23)nc1N1CCC(O)CC1 [Example 288, 1-(3-methyl-6-(5-(pyridin-3-yl)-1H-pyrazolo[3,4-c]pyridin-3-yl)pyridin-2-yl)piperidin-4-ol]
15 | 0.017 nM | N[C@H]1CCCN(c2nc(-c3n[nH]c4cnc(-c5cccnc5)cc34)ccc2Br)C1 [Example 289, (S)-1-(3-bromo-6-(5-(pyridin-3-yl)-1H-pyrazolo[3,4-c]pyridin-3-yl)pyridin-2-yl)piperidin-3-amine]
16 | 0.082 nM | N[C@@H]1CCCN(c2nc(-c3n[nH]c4cnc(-c5cccnc5)cc34)ccc2Br)C1 [Example 290, (R)-1-(3-bromo-6-(5-(pyridin-3-yl)-1H-pyrazolo[3,4-c]pyridin-3-yl)pyridin-2-yl)piperidin-3-amine]
